Measurements published in PubChem BioAssay (NCI).
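Values below derive from 48-hour exposures of cells grown in 96-well plates, with endpoints linearly interpolated between the two concentrations bracketing the appropriate inhibition level. At the TGI there is no net growth.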

Tests used:
Test in all cases: inhibition of tumour cell growth, NCI panel, 48 h
[1] = test system: SK-MEL-28 melanoma
[2] = test system: ACHN renal
[3] = test system: RPMI-8226 leukemia
[4] = test system: MOLT-4 leukemia
[5] = test system: HOP-92 NSCLC
[6] = test system: NCI-H460 lung
[7] = test system: HCT-116 colon
[8] = test system: M14 melanoma
[9] = test system: U251 CNS
[10] = test system: NCI-H23 lung
[11] = test system: RXF 393 renal
[12] = test system: SK-MEL-5 melanoma
[13] = test system: T-47D breast
[14] = test system: SK-MEL-2 melanoma
[15] = test system: OVCAR-3 ovarian
[16] = test system: MDA-MB-435
[17] = test system: UACC-62 melanoma
[18] = test system: SW-620 colon
[19] = test system: COLO 205 colon
[20] = test system: 786-0 renal
[21] = test system: HOP-62 NSCLC
[22] = test system: OVCAR-4 ovarian
[23] = test system: LOX IMVI melanoma
[24] = test system: OVCAR-5 ovarian
[25] = test system: KM12 colon
[26] = test system: NCI-H226 lung
[27] = test system: HCT-15 colon
[28] = test system: CCRF-CEM leukemia
[29] = test system: UACC-257 melanoma
[30] = test system: MDA-MB-231 breast
[31] = test system: BT-549 breast
[32] = test system: UO-31 renal
[33] = test system: TK-10 renal
[34] = test system: A549 NSCLC
[35] = test system: SF-295 CNS
[36] = test system: NCI/ADR-RES ovarian
[37] = test system: CAKI-1 renal
[38] = test system: DU-145 prostate
[39] = test system: HCC-2998 colon
[40] = test system: SNB-75 CNS
[41] = test system: A498 renal
[42] = test system: SF-268 CNS
[43] = test system: SNB-19 CNS
[44] = test system: MCF7 breast
[45] = test system: EKVX NSCLC
[46] = test system: SK-OV-3 ovarian
[47] = test system: PC-3 prostate

Measured: TGI

CN(C)C1(N(C)C)Oc2c(c(=O)n(C)c(=O)n2C)C(c2ccc(Br)cc2)C1(F)F (configuration not stated)
> 100 µM: all assays above
